Assay results as given in publication PMC9652372, “Glycolytic flux control by drugging phosphoglycolate phosphatase” (Nature Communications, 2022).
In brackets after ≈: the same amount, converted by molar mass. Several values for one entry are separate records, joined by “and”; a condition that tells them apart may be missing. Equal entries are not always repeated. Where two headings read alike, the source gives them in different places.

Legend:
[1] = physchem; conditions: organic solvent or mixture
[2] = target: T1, murine PGP-WT (Mus musculus, UniProt Q8CHP8); assay: Isothermal titration calorimetry, PGP-WT; type: binding; conditions: ITC; for Kd: murine PGP
T1 construct: His6 (N, cleaved yes); made in house; host or cells: Escherichia coli BL21 (DE3), pETM11, co-expressed with groES-groEL-tig
T1 sequence (Q8CHP8 1-321): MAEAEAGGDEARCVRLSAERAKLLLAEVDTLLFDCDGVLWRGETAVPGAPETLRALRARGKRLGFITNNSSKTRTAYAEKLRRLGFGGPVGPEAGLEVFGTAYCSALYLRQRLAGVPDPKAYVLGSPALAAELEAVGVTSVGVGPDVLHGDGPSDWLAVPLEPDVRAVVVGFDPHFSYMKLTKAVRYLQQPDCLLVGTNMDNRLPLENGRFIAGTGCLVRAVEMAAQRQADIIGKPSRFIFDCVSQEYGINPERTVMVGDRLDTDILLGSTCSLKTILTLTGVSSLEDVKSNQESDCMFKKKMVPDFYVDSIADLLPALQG
Protocol: Purified murine PGP-WT or PGP-P127E was dialyzed overnight against ITC buffer (30 mM HEPES, 30 mM NaCl, 5 mM MgCl2, 1 mM tris(2-carboxyethyl)phosphine/TCEP; pH 7.5). All calorimetric measurements were performed at 25 °C on an ITC200 microcalorimeter (GE Healthcare). Experiments were conducted with a fixed concentration of 2% DMSO. […] To reduce the effects of ligand leakage from the syringe during baseline equilibration, the heat release of a single 1.2 μL injection was recorded prior to the actual titration experiment, and discarded during data analysis with Nitpic 2.0.7[45]. To determine background heats of dilution, control experiments of ligand into buffer, buffer into protein and buffer into buffer titrations were performed.

[3] = target: T2, murine PGP (Mus musculus, UniProt Q8CHP8); assay: biochemical
T2 sequence (Q8CHP8 1-321): T1 sequence (Q8CHP8 1-321)

[4] = target: T2, murine PGP; assay: IC50 determination, murine PGP, pNPP dephosphorylation
[5] = target: T3, PGP^WT (Mus musculus, UniProt Q8CHP8); assay: Differential scanning fluorimetry (Thermofluor); type: binding
T3 construct: His6 (N, cleaved yes); made in house; host or cells: Escherichia coli BL21 (DE3), pETM11, co-expressed with groES-groEL-tig
T3 sequence (Q8CHP8 1-321): T1 sequence (Q8CHP8 1-321)

[6] = target: T4, PGP (Mus musculus, UniProt Q8CHP8); assay: Steady state kinetics of PG dephosphorylation in presence of CP1-3
T4 sequence (Q8CHP8 1-321): T1 sequence (Q8CHP8 1-321)

[7] = target: T5, murine PDXP/PGP hybrid (Mus musculus, UniProt P60487+Q8CHP8); assay: PG dephosphorylation by PDXP/PGP hybrid protein; type: biochemical
T5 construct: consisting of the PGP cap domain (amino acids 114–233) fused to the PDXP core domain; His6 (N, cleaved yes); made in house; host or cells: Escherichia coli BL21 (DE3), pETM11
T5 sequence (P60487 1-100): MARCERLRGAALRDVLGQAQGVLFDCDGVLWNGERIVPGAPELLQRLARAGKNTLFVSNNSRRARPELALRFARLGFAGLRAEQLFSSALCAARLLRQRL
T5 sequence (Q8CHP8 114-233): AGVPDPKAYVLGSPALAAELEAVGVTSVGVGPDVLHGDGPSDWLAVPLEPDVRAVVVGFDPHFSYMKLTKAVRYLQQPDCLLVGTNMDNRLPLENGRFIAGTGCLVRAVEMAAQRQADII
T5 sequence (P60487 208-292): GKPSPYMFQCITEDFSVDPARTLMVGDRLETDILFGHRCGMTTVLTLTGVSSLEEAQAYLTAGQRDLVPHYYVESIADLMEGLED
Protocol: After centrifugation, cells were resuspended in TNM-2 (100 mM triethanolamine, 500 mM NaCl, 20 mM imidazole, 5 mM MgCl2; pH 7.4). Cleared supernatants were loaded on a HisTrap HP nickel sepharose column in TNM-3 (50 mM triethanolamine, 500 mM NaCl, 20 mM imidazole, 5 mM MgCl2; pH 7.4), and His6-tagged proteins were eluted using a linear gradient of up to 50% TNM-4 (50 mM triethanolamine; 250 mM NaCl; 500 mM imidazole; 5 mM MgCl2; pH 7.4). Peak fractions were pooled, the His6-tag was cleaved, and untagged PDXP or PDXP/PGP was isolated, concentrated and further purified by size exclusion chromatography in TNM-5 (50 mM triethanolamine; 250 mM NaCl; 5 mM MgCl2; pH 7.4). […] Data were analyzed with GraphPad Prism 7.04.

[8] = target: T6, murine PDXP (Mus musculus, UniProt P60487); assay: PDXP activity towards pyridoxal 5'-phosphate (PLP); conditions: phosphatase PDXP; species M.m.; substrate PLP; n.s. = no significant inhibition detectable
T6 sequence (P60487 1-292): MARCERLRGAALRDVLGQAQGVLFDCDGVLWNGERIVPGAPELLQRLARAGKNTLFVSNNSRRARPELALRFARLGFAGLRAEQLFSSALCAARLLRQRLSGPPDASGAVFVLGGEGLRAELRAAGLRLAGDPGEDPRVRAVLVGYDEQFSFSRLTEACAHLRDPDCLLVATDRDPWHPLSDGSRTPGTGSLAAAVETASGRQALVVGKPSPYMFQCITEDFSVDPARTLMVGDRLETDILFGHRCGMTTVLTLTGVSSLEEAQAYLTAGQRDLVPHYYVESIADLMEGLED

[9] = PG dephosphorylation, increasing CP concentrations

O=C(Nc1ccccc1C(=O)O)c1ccc(Oc2ccc(C(=O)Nc3ccccc3C(=O)O)cc2)cc1 [CP1]
solubility [1]: 100 mM (≈ 49.6 mg/mL) | Kd ([2]; 25 °C, mean ± S.E.M., n = 3): 0.78 µM | Kd ([2]; single replicates): 0.85 µM and 0.79 µM and 0.71 µM | dG ([2]; single replicates): -8.282 kcal/mol and -8.325 kcal/mol and -8.393 kcal/mol | dH ([2]; single replicates): -5.583 kcal/mol and -4.903 kcal/mol and -5.696 kcal/mol | dS ([2]; single replicates): 9.052 cal/Mol*K and 11.478 cal/Mol*K and 9.044 cal/Mol*K | IC50 [3]: 0.37 µM and 0.4 µM | IC50 [4]: 0.77 ± 0.05 µM | remaining activity at 25 µM ([4]; read-out: M.m PGP on pNPP, activity, control = 100.00, CP log[M] -4.60206): 3.52% | remaining activity at 10 µM ([4]; read-out: M.m PGP on pNPP, activity, control = 100.00, CP log[M] -5): 6.83% | remaining activity at […] ([4]; read-out: M.m PGP on pNPP, activity, control = 100.00, CP log[M] -5.60206): 23.4% | remaining activity at 1 µM ([4]; read-out: M.m PGP on pNPP, activity, control = 100.00, CP log[M] -6): 47.8% | remaining activity at 0.5 µM ([4]; read-out: M.m PGP on pNPP, activity, control = 100.00, CP log[M] -6.30103): 65% | remaining activity at […] ([4]; read-out: M.m PGP on pNPP, activity, control = 100.00, CP log[M] -6.60206): 85% | remaining activity at 0.125 µM ([4]; read-out: M.m PGP on pNPP, activity, control = 100.00, CP log[M] -6.90309): 91.3% | remaining activity at 0.0625 µM ([4]; read-out: M.m PGP on pNPP, activity, control = 100.00, CP log[M] -7.20412): 99.4% | remaining activity at 0.03125 µM ([4]; read-out: M.m PGP on pNPP, activity, control = 100.00, CP log[M] -7.50515): 100% | TM ([5]; Inhibitor 0.244141 µM): 66.6 °C | TM ([5]; Inhibitor 0.488281 µM): 66.6 °C | TM ([5]; Inhibitor 0.976562 µM): 66.8 °C | TM ([5]; Inhibitor 1.95312 µM): 67.0 °C | TM ([5]; Inhibitor 3.90625 µM): 67.7 °C | TM ([5]; Inhibitor 7.8125 µM): 68.6 °C | TM ([5]; Inhibitor 15.625 µM): 69.6 °C | TM ([5]; Inhibitor 31.25 µM): 70.5 °C | TM ([5]; Inhibitor 62.5 µM): 71.0 °C | TM ([5]; Inhibitor 125 µM): 71.0 °C | TM ([5]; Inhibitor 250 µM): 70.1 °C | increase in the maximal PGP melting temperature ([5]; from 66.4 °C (control conditions)): 4.6 ° | mode of PGP inhibition [6]: mixed mode of inhibition | PGP activity ([6]; 0,5 µM CP1, PG 50 µM): 1.261 µmol Pi/min/mg and 1.442 µmol Pi/min/mg | PGP activity ([6]; 0,5 µM CP1, PG 100 µM): 3.424 µmol Pi/min/mg and 4.325 µmol Pi/min/mg and 3.784 µmol Pi/min/mg | PGP activity ([6]; 0,5 µM CP1, PG 200 µM): 7.208 µmol Pi/min/mg and 7.809 µmol Pi/min/mg and 7.689 µmol Pi/min/mg | PGP activity ([6]; 0,5 µM CP1, PG 300 µM): 11.5358 µmol Pi/min/mg and 12.2568 µmol Pi/min/mg and 11.716 µmol Pi/min/mg | PGP activity ([6]; 0,5 µM CP1, PG 400 µM): 14.0592 µmol Pi/min/mg and 13.5185 µmol Pi/min/mg | PGP activity ([6]; 0,5 µM CP1, PG 500 µM): 16.5827 µmol Pi/min/mg and 16.763 µmol Pi/min/mg and 16.2222 µmol Pi/min/mg | PGP activity ([6]; 0,5 µM CP1, PG 600 µM): 17.6642 µmol Pi/min/mg and 17.3037 µmol Pi/min/mg and 17.4839 µmol Pi/min/mg | PGP activity ([6]; 0,5 µM CP1, PG 700 µM): 19.4667 µmol Pi/min/mg and 20.1876 µmol Pi/min/mg and 19.2864 µmol Pi/min/mg | PGP activity ([6]; 0,5 µM CP1, PG 800 µM): 18.0247 µmol Pi/min/mg and 18.9259 µmol Pi/min/mg and 20.0074 µmol Pi/min/mg | PGP activity ([6]; 1 µM CP1, PG 50 µM): 1.382 µmol Pi/min/mg and 0.901 µmol Pi/min/mg and 0.7809 µmol Pi/min/mg | PGP activity ([6]; 1 µM CP1, PG 100 µM): 2.763 µmol Pi/min/mg and 2.222 µmol Pi/min/mg and 2.403 µmol Pi/min/mg | PGP activity ([6]; 1 µM CP1, PG 200 µM): 4.805 µmol Pi/min/mg and 4.745 µmol Pi/min/mg and 4.625 µmol Pi/min/mg | PGP activity ([6]; 1 µM CP1, PG 300 µM): 7.751 µmol Pi/min/mg and 7.57 µmol Pi/min/mg and 7.39 µmol Pi/min/mg | PGP activity ([6]; 1 µM CP1, PG 400 µM): 9.373 µmol Pi/min/mg and 8.4716 µmol Pi/min/mg and 9.012 µmol Pi/min/mg | PGP activity ([6]; 1 µM CP1, PG 500 µM): 11.1753 µmol Pi/min/mg and 10.6346 µmol Pi/min/mg and 10.9951 µmol Pi/min/mg | PGP activity ([6]; 1 µM CP1, PG 600 µM): 12.437 µmol Pi/min/mg and 11.8963 µmol Pi/min/mg and 13.158 µmol Pi/min/mg | PGP activity ([6]; 1 µM CP1, PG 700 µM): 13.879 µmol Pi/min/mg and 12.7975 µmol Pi/min/mg | PGP activity ([6]; 1 µM CP1, PG 800 µM): 14.0592 µmol Pi/min/mg and 13.6988 µmol Pi/min/mg and 12.9778 µmol Pi/min/mg | PGP activity ([6]; 2 µM CP1, PG 50 µM): 0.6007 µmol Pi/min/mg and 1.021 µmol Pi/min/mg and 0.5406 µmol Pi/min/mg | PGP activity ([6]; 2 µM CP1, PG 100 µM): 1.562 µmol Pi/min/mg and 1.862 µmol Pi/min/mg and 1.201 µmol Pi/min/mg | PGP activity ([6]; 2 µM CP1, PG 200 µM): 2.703 µmol Pi/min/mg and 2.643 µmol Pi/min/mg | PGP activity ([6]; 2 µM CP1, PG 300 µM): 4.867 µmol Pi/min/mg and 5.227 µmol Pi/min/mg and 5.588 µmol Pi/min/mg | PGP activity ([6]; 2 µM CP1, PG 400 µM): 6.309 µmol Pi/min/mg and 6.128 µmol Pi/min/mg and 5.948 µmol Pi/min/mg | PGP activity ([6]; 2 µM CP1, PG 500 µM): 7.57 µmol Pi/min/mg and 7.03 µmol Pi/min/mg and 7.21 µmol Pi/min/mg | PGP activity ([6]; 2 µM CP1, PG 600 µM): 7.751 µmol Pi/min/mg and 7.931 µmol Pi/min/mg | PGP activity ([6]; 2 µM CP1, PG 700 µM): 7.57 µmol Pi/min/mg and 9.012 µmol Pi/min/mg and 8.291 µmol Pi/min/mg | PGP activity ([6]; 2 µM CP1, PG 800 µM): 6.849 µmol Pi/min/mg and 8.4716 µmol Pi/min/mg and 8.291 µmol Pi/min/mg | vmax ([6]; CP 0.5 µM): 39.9 ± 2.9 µmol/min/mg | vmax ([6]; CP 1.0 µM): 33.6 ± 3.0 µmol/min/mg | vmax ([6]; CP 2.0 µM): 17.1 ± 2.1 µmol/min/mg | effect on vmax (reduction) [6, 9]: ~ 3 fold | increase of KM [6, 9]: ~ 3 fold | remaining activity at 16 µM ([7]; activity, control = 100, CP log[M] -4.79588): 22% | remaining activity at 4 µM ([7]; activity, control = 100, CP log[M] -5.39794): 59.9% | remaining activity at 2 µM ([7]; activity, control = 100, CP log[M] -5.69897): 72% | remaining activity at 1 µM ([7]; activity, control = 100, CP log[M] -6): 77.3% | remaining activity at 0.5 µM ([7]; activity, control = 100, CP log[M] -6.30103): 82.6% | remaining activity at […] ([7]; activity, control = 100, CP log[M] -6.60206): 92.4% | remaining activity at 0.125 µM ([7]; activity, control = 100, CP log[M] -6.90309): 90.9% | remaining activity at 0.0625 µM ([7]; activity, control = 100, CP log[M] -7.20412): 93.9% | remaining activity at 0.015625 µM ([7]; activity, control = 100, CP log[M] -7.80618): 101% | IC50 ([7]; phosphatase PDXP/PGP, species M.m., substrate PG): 13.8 ± 1.43 µM | IC50 [8]: n.s.
